Laboratory results published in the supplement of paper PMC10307832.

Experiments:
Experiment in all cases: relative viability (nuclei count vs DMSO), 5 days (fraction); higher = more cells survive
NCI-H2126 = test system: NCI-H2126
In short: (§1)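 Cells from lung cancer lines were seeded into 1536-well plates and, one day later, dosed by pin tool. Treatments were either a single drug or a fixed dose of an anchor drug with five library-drug doses (not always all listed) in √10 steps. After 5 days, nuclei were stained in a one-step fixation (final 0.05% Triton X-100, 1% formaldehyde, 1 ug/ml Hoechst) and counted on 4× images, and relative viability is the treated-to-vehicle nuclei ratio, as the median of duplicate plates.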

RERF-LC-KJ = test system: RERF-LC-KJ
In short: as §1

SW 900 = test system: SW 900
In short: as §1

NCI-H2405 = test system: NCI-H2405
In short: as §1

LK-2 = test system: LK-2
In short: as §1

SW 1573 = test system: SW 1573
In short: as §1

HCC-78 = test system: HCC-78
In short: as §1

NCI-H23 = test system: NCI-H23
In short: as §1

LOU-NH91 = test system: LOU-NH91
In short: as §1

LU99A = test system: LU99A
In short: as §1

EPLC-272H = test system: EPLC-272H
In short: as §1

LCLC-103H = test system: LCLC-103H
In short: as §1

COc1cc(N2CCC(C(N)=O)CC2)ccc1Nc1nc(N)c(Cl)c(Nc2ccccc2S(=O)(=O)C(C)C)n1 [HG-5-88-01] + CC(=O)c1c(C)c2cnc(Nc3ccc(N4CCNCC4)cn3)nc2n(C2CCCC2)c1=O [Palbociclib] (partner 0.5 µM)
relative viability (NCI-H2126; first compound 0.04 µM): 0.363
relative viability (NCI-H2126; first compound 0.1265 µM): 0.352
relative viability (NCI-H2126; first compound 0.4 µM): 0.378
relative viability (NCI-H2126; first compound 1.265 µM): 0.332
relative viability (NCI-H2126; first compound 4 µM): 0.372
relative viability (RERF-LC-KJ; first compound 0.04 µM): 1.07
relative viability (RERF-LC-KJ; first compound 0.1265 µM): 1.14
relative viability (RERF-LC-KJ; first compound 0.4 µM): 1.08
relative viability (RERF-LC-KJ; first compound 1.265 µM): 0.908
relative viability (RERF-LC-KJ; first compound 4 µM): 0.656
relative viability (SW 900; first compound 0.04 µM): 0.54
relative viability (SW 900; first compound 0.1265 µM): 0.584
relative viability (SW 900; first compound 0.4 µM): 0.473
relative viability (SW 900; first compound 1.265 µM): 0.509
relative viability (SW 900; first compound 4 µM): 0.567
relative viability (NCI-H2405; first compound 0.04 µM): 0.515
relative viability (NCI-H2405; first compound 0.1265 µM): 0.523
relative viability (NCI-H2405; first compound 0.4 µM): 0.528
relative viability (NCI-H2405; first compound 1.265 µM): 0.348
relative viability (NCI-H2405; first compound 4 µM): 0.462
relative viability (LK-2; first compound 0.04 µM): 0.772
relative viability (LK-2; first compound 0.1265 µM): 0.582
relative viability (LK-2; first compound 0.4 µM): 0.71
relative viability (LK-2; first compound 4 µM): 0.519
relative viability (SW 1573; first compound 0.04 µM): 0.412
relative viability (SW 1573; first compound 0.1265 µM): 0.369
relative viability (SW 1573; first compound 0.4 µM): 0.337
relative viability (SW 1573; first compound 1.265 µM): 0.257
relative viability (SW 1573; first compound 4 µM): 0.277
relative viability (HCC-78; first compound 0.04 µM): 0.465
relative viability (HCC-78; first compound 0.1265 µM): 0.424
relative viability (HCC-78; first compound 0.4 µM): 0.497
relative viability (HCC-78; first compound 1.265 µM): 0.421
relative viability (HCC-78; first compound 4 µM): 0.44
relative viability (NCI-H23; first compound 0.04 µM): 0.507
relative viability (NCI-H23; first compound 0.1265 µM): 0.549
relative viability (NCI-H23; first compound 0.4 µM): 0.545
relative viability (NCI-H23; first compound 1.265 µM): 0.378
relative viability (NCI-H23; first compound 4 µM): 0.263
relative viability (LOU-NH91; first compound 0.04 µM): 0.533
relative viability (LOU-NH91; first compound 0.1265 µM): 0.491
relative viability (LOU-NH91; first compound 0.4 µM): 0.585
relative viability (LOU-NH91; first compound 1.265 µM): 0.509
relative viability (LOU-NH91; first compound 4 µM): 0.55
relative viability (LU99A; first compound 0.04 µM): 0.434
relative viability (LU99A; first compound 0.1265 µM): 0.39
relative viability (LU99A; first compound 0.4 µM): 0.384
relative viability (LU99A; first compound 1.265 µM): 0.32
relative viability (LU99A; first compound 4 µM): 0.305
relative viability (EPLC-272H; first compound 0.04 µM): 0.342
relative viability (EPLC-272H; first compound 0.1265 µM): 0.342
relative viability (EPLC-272H; first compound 0.4 µM): 0.335
relative viability (EPLC-272H; first compound 1.265 µM): 0.273
relative viability (EPLC-272H; first compound 4 µM): 0.0966
relative viability (LCLC-103H; first compound 0.04 µM): 0.48
relative viability (LCLC-103H; first compound 0.1265 µM): 0.48
relative viability (LCLC-103H; first compound 0.4 µM): 0.443
